The term logD denotes lipophilicity at a set pH, counting ionised and neutral species. The low end stands for a more hydrophilic compound, the high end for a more lipophilic compound. In general, kinetic solubility refers to the concentration staying in solution when a stock, usually in DMSO, is diluted into the medium. What is called solubility is how much of the substance goes into solution per volume. The low end stands for little dissolved substance, the high end for much dissolved substance. As usually defined, the microsomal CLint is a measure of how fast metabolising enzymes remove a compound, apart from limits set by blood flow. The low end stands for slow turnover, the high end for rapid turnover. Usually half-life stands for the time in which the quantity being followed falls by half. Lower therefore signals fast loss.

From article PMC10718076, “1,2-Disubstituted bicyclo[2.1.1]hexanes as saturated bioisosteres of ortho-substituted benzene” (Chemical Science, 2023) come the findings set out here.

≈ marks a conversion by molar mass, not a printed value. Where two headings read alike, the source gives them in different places.

Data set [1] in a line: Kinetic solubility in phosphate-buffered saline, pH 7.4. The conditions noted are these: 25 °C, pH 7.4, aqueous buffer, kinetic from dmso stock; for solubility at 2 h: PBS solubility. It is filed as physicochemical. The procedure:
Analysis of Aqueous Solubility […]
compound (Ondansetron) were assessed for kinetic solubility in phosphate -buffered saline, pH 7.4.
Phosphate buffered saline, pH 7.4 (Sigma -Aldrich, USA; Cat #P3813) […]
MultiScreen HTS 96 Well Filter Plates (Millipore, Ireland; Cat # MSSLBPC10) […]
Matrix Multichannel Electronic Pipette 2-125 μL, 5-250 μL, 15-1250 μL (Thermo Scientific, USA; […]
Vacuum pump (Millipore, USA; Model # XX5500000)
The measurements were performed using SpectraMax Plus reader in UV -Vis mode. Acquisition and […]
The measurements were performed using SpectraMax Paradigm reader in UV-Vis mode.
Acquisition and analysis of the data were performed using SoftMax Pro v.5.4 (Molecular Devices) […]
Kinetic solubility assay was performed according to the Enamine’s aqueous solubility SOP. Briefly, using a 20 mM stock solution of the compound in 100% DMSO dilutions were prepared to a theoretical concentration of 400 μM in duplicates in phosphate-buffered saline pH 7.4 […]
compound dilutions in PBS were further allowed to equilibrate at 25 °C on a thermostatic shaker for two hours and then filtered through HTS filter plates using a vacuum manifold. The filtrates of test compounds were diluted 2-fold with acetonitrile with 2% DMSO before measuring.
In parallel, compound dilutions in 50% acetonitrile/PBS were prepared to theoretical concentrations […]
calibration curves. Ondansetron was used as reference compound to control proper assay performance. 200 μl of each sample was transferred to 96-well plate and measured in 230-550 nm range with 5 nm step. The effective range of this assay is approximately 2-400 μM and the […]
The concentrations of compounds in PBS filtrate are calculated using a dedicated Microsoft Excel calculation script. Proper absorbance wavelengths for calculations are selected for each compound manually based on absorbance maximums (absolute absorbance unit values for the minimum and maximum concentration points within the 0 – 3 OD range). Each final dataset is visually evaluated by the operator, and goodness of fit (R2) is calculated for each calibration curve. […]
samples were diluted 2-fold with acetonitrile containing internal standard and were analyzed using the HPLC system coupled with a tandem mass spectrometer. The effective range of this assay is […]

Data set [2] can be described thus: Metabolic stability in human liver microsomes. The conditions noted are these: both, liver microsomes (pooled); for remaining at 40 min, 2 µM: Mean of 2, 40 min. In general terms: Liver microsomes are vesicles of endoplasmic reticulum, rich in cytochrome P450 enzymes.
The nature of a further data set: in vitro. The conditions noted are these: both, human.
The conditions of data set [3]: both, human, pH 7.4.
Where [4] appears, read: Table S5, injection 1, octanol/PBS pH 7.4.
The mark [5] stands for this setting: Table S5, injection 2, octanol/PBS pH 7.4.
The mark [6] stands for this setting: Table S5, injection 3, octanol/PBS pH 7.4.
Where [7] appears, read: microsomes, pH 7.4, % Remaining, Mean of 2.

Protocol for physchem: Determination of Distribution Coefficient (LogD, pH 7.4)
coefficient (or LogD) is a logarithm of the ratio of drug concentrations in two immiscible solvents,
typically pH-buffered water and n-octanol. It is a measure of hydrophobic/hydrophilic properties of
a given molecule. The partition of test compounds is determined using a shake-flask method, which
involves mixing of a certain amount of the solute of interest in defined volumes of n-octanol and an
aqueous buffer of choice followed by equilibration of the mixture by incubation with efficient
mixing. Then, the distribution of the compounds in each solvent was controlled using LC-MS/MS.
Phosphate buffered saline, tablet (Sigma-Aldrich, USA; Cat # P4417)
Acetic acid (Enamine, Ukraine)
1.1 mL microtubes in microracks, pipettor tips (Thermo Scientific, USA).
National Scientific MicroTube™ Rack (Thermo Fisher Scientific, USA; Cat # TN094612R)
Gradient HPLC system (Shimadzu, Japan)
Triple quadrapole mass-detector API 3000 with TurboIonSpray Ion Source (AB Sciex, Canada)
MTR22 Multi Mix Rotator (UNICO, USA)
Laboratory Centrifuge, Sigma 4-15C, Qiagen (SIGMA GmbH, Germany)
Water purification system Millipore Milli-Q Gradient A10 (Millipore, France)
All measurements were performed using a Shimadzu Prominence HPLC system including a
vacuum degasser, gradient pumps, a reverse phase column, a column oven and an autosampler.
Mass spectrometric analysis was performed using an API 4000 QTRAP mass spectrometer from
Applied Biosystems/MDS Sciex (AB Sciex) with Turbo V ion source and TurboIonspray
interface. The TurboIonSpray ion source was used in both positive and negative ion modes.
Acquisition and analysis of the data were performed using Analyst 1.6.3 software.
Incubations were carried out in Eppendorf-type polypropylene microtubes in triplicates. A 2.5 μL
aliquot of 20 mM DMSO stock of a test compound was added into the previously mutually
saturated mixture containing 500 μL of PBS (pH 7.4) and 500 μL of octanol. The solution was
allowed to mix in a rotator for 1 hour at 30 rpm. Phase separation was assured by centrifugation for
2 min at 6000 rpm. The octanol phase was diluted 100-fold with 40% acetonitrile, and the aqueous
phase (PBS buffer) was diluted 10-fold with 40% acetonitrile. The samples (both phases) were
analyzed using an HPLC system coupled with a tandem mass spectrometer.
Calculations of the partition ratios were carried out using the equation below.
where: – peak area of the analyte in octanol phase
– peak area of the analyte in PBS buffer
– dilution coefficient for octanol phase dp – dilution coefficient for aqueous phase

Regarding `O=C(NC1CCN(CCCCC2(C(=O)NCC(F)(F)F)c3ccccc3-c3ccccc32)CC1)C1CC2CC1(c1ccc(C(F)(F)F)cc1)C2` (centres unmarked) [Compound 27], the D is on record as 7.79E+03 under setting [4], 7.46E+03 under setting [5] and 8.20E+03 under setting [6]. The logD at 1 h in the data set “physchem” (pH 7.4, LogD, pH 7.4) is 3.89; in the data set “physchem” (pH 7.4, log D (7.4)), 3.9. In addition, in data set [1], the solubility (kinetic) at 2 h is 18 µM (≈ 12.6 µg/mL). Further, the solubility at 2 h in data set [1] (pH 7.4, Incubation 1) worked out at 18 µM (≈ 12.6 µg/mL); in data set [1] (pH 7.4, Incubation 2), 19 µM (≈ 13.3 µg/mL); in data set [1] (pH 7.4, Mean) it was 18 µM (≈ 12.6 µg/mL). In data set [2] (pH 7.4), the microsomal CLint at 2 µM worked out at 186 µL/min/mg. The share remaining at 40 min, 2 µM in data set [2] (pH 7.4, % Remaining without cofactor, no NADPH cofactor, Table S6, 1st batch) stood at 106%; in data set [2] (pH 7.4, % Remaining, Table S6, 1st batch) it was 5%. Besides, the amount remaining at […], 2 µM was found to be 47% in data set [2] (pH 7.4, % Remaining, Mean of 2, 7 min, Table S6, 1st batch) and 20% in data set [2] (pH 7.4, % Remaining, Mean of 2, 15 min, Table S6, 1st batch). Moreover, the amount remaining at 25 min, 2 µM in data set [2] (pH 7.4, % Remaining, Mean of 2, 25 min, Table S6, 1st batch) stood at 9%. The compound further had a k el at 2 µM in data set [2] (pH 7.4, kel, Table S6, 1st batch) of 0.00128 s⁻¹. Besides, in data set [2] (pH 7.4, t1/2, Table S6, 1st batch), the half-life at 2 µM turned out to be 9 min.
`Cc1nc2c([nH]1)-c1ccccc1N(C(=O)c1ccc(NC(=O)c3ccccc3-c3ccccc3)cc1)CC2` [Conivaptan, conivaptan] came in with a D under setting [4] of 1.98E+04, a D under setting [5] of 2.11E+04 and a D under setting [6] of 1.99E+04. This compound displayed a microsomal CLint at 2 μM in “in vitro” (microsomes, pH 7.4) of 31 µL/min/mg. For the same compound, the share remaining at 40 min, 2 µM in the data set “in vitro” (microsomes, pH 7.4, % Remaining without cofactor, Mean of 2) came out at 101%; in the data set “in vitro” (setting [7]), 60%. Moreover, the amount remaining at 25 min, 2 µM in “in vitro” (setting [7]) amounted to 67%. Besides, the half-life at 2 µM in “in vitro” (microsomes, pH 7.4, t1/2) stood at 54.4 min. The compound further had a k el at 2 µM in the data set “in vitro” (pH 7.4, kel) of 0.000217 s⁻¹. For the same compound, the logD at 1 h in the data set “physchem” (pH 7.4, LogD, pH 7.4) worked out at 4.3. This compound yielded a solubility (kinetic) at 2 h in data set [1] of 5 µM (≈ 2.49 µg/mL). Further, the solubility at 2 h was determined as 4 µM (≈ 1.99 µg/mL) in data set [1] (pH 7.4, Incubation 1); 7 µM (≈ 3.49 µg/mL) in data set [1] (pH 7.4, Incubation 2); 5 µM (≈ 2.49 µg/mL) in data set [1] (pH 7.4, Mean).
Turning to `O=C(O)Cc1ccccc1Nc1c(Cl)cccc1Cl` [Diclofenac], in the data set “in vitro” (microsomes, pH 7.4), the microsomal CLint at 2 µM amounted to 173 µL/min/mg and the microsomal CLint at 2 μM amounted to 272 µL/min/mg. In the data set “in vitro” (pH 7.4, kel), the k el at 2 µM was 0.0012 s⁻¹ and the k el at 2 μM is 0.00123 s⁻¹. Also, the microsomal CLint at 2 μM in the data set “in vitro” (s9, pH 7.4) stood at 178 µL/min/mg. For the same compound, the “% Remaining, Mean of 2” value in data set [3] (microsomes, 25 min, 2 µM) came out at 9%. Moreover, the “% Remaining, Mean of 2” value in data set [3] (s9, 25 min, 2 μM) was 9%.
